Results on one molecule are retold here after patent US20250268844A1, “ANTICANCER AGENTS BASED ON CYCLOPENTENONES” (UNIVERSITY OF CRETE, priority 2022, published 2025).

In assay [1] the test system is HeLa cervical carcinoma cells. The assay is described as follows: MTT conversion assay, HeLa. Format: cell-based, human. As to conditions: Homo sapiens, 48 hrs treatment. As for the experimental part:
(§1) In particular, Enone-1 and Enone-2 were tested for cytotoxic activity in 17 cell lines representing a broad spectrum of human tumors. They include human colorectal carcinoma (Caco2, RKO, HCT15, HT29), liver (HepG2), lung (A549), ovarian carcinoma (A2780, 2780CP, AGE60, SKOV3), anaplastic large cell lymphoma (Mac1 and Mac2a), breast carcinoma (MDA-MB-231), cervical (HeLa), bladder cancer (VM-CUB-1), melanoma (BRO), and multiple myeloma (MR20).
(§2) Each assay was performed in triplicate and repeated in 2-3 independent experiments. Specifically, to measure cell survival, 20 μl of 10 mg/ml MTT (3-([…])-2,5-diphenyl tetrazolium bromide; Sigma) was added to each well and the plates were incubated at 37° C. in 5% CO2 for 3 hours. The supernatant was removed and the formed crystals were dissolved in 200 μl dimethyl sulphoxide. The plates were then analysed at 450 nm on a plate reader. Growth inhibition (reduction in survival) was calculated by expressing the differences in optical densities between treatment wells and control wells as a percentage of the control.

For assay [2], the system named is HT29 colorectal carcinoma cells. The assay is described as follows: MTT conversion assay, HT29. The class given is cell-based, human. As to conditions: Homo sapiens, HT-29, HT29, colon, 48 hrs treatment. As for the experimental part: as §1, §2
The subject of assay [3] is A2780 ovarian carcinoma cells. The assay is described as follows: MTT conversion assay, A2780. The class given is cell-based, human. As to conditions: Homo sapiens, 48 hrs treatment. As for the experimental part: as §1, §2
Another assay deals with A549 lung cells. The assay is described as follows: MTT conversion assay, A549. Format: cell-based, human. The note with it: Homo sapiens, 48 hrs treatment. As for the experimental part:
as §1, §2

The test system of assay [4] is p53. The assay is described as follows: siRNA knockdown of Chek2 or Rpl11 and drug-induced p53 activation in A2780 cells. Format: cell-based, human. The note with it: A2780 transiently transfected with siRNAs. As for the experimental part: FIG. 9. […] A2780 cells were cultured for 6 hrs in the presence of drug concentrations as indicated. (B) Effects of siRNA targeting RPL11 (siRPL11), Chek2 (siChek2) or the unrelated luciferase (Luci) genes on RPL11 and Chek2 mRNA levels quantified by RT-PCR. (C) Effects of siRpl11 on Enone-2 and oxaliplatin (OXA)-induced p53 activation. Expression levels relative to GAPDH are indicated; untreated controls (CNT) were given the arbitrary value of 1. […] Expression levels relative to GAPDH are indicated; untreated controls (CNT) were given the arbitrary value of 1.
To further validate this observation, A2780 cells were transiently transfected with siRNAs targeting Chek2 which is required for DDR-induced p53, or Rpl11 which is required for RS-mediated p53 activation. The efficacy and specificity of the knockdowns were confirmed by RT-qPCR (FIG. 9B).

In assay [5] the test system is 2780CP, a cis-platin-resistant derivative of A2780. The assay is described as follows: MTT conversion assay, 2780CP. Format: cell-based, human. As for the experimental part: as §1, §2
Resistance to platinum-based chemotherapy is a major problem in oncology that impacts therapeutic options and limits patient survival. This is relevant to several types of malignancy, including ovarian cancer where platinum resistance frequently occurs. As Enone-1 and 2 show efficacy in reducing survival of A2780 ovarian carcinoma cells, the drugs were also tested in 2780CP, a cis-platin-resistant derivative of A2780 [13].

Assay [6] deals with p53. Kind of assay: p53 immunoblot in A2780 cells. As to conditions: 2.5 μM or increasing concentrations, 6 hrs or time course. The class given is cell-based, human. As for the experimental part: (§3) FIG. 8: Enones induce the p53 pathway. […] Cell lysates were analyzed for p53 and GAPDH (loading control). (B) A2780 cells were cultured in the presence or absence of 2.5 μM for the indicated time points before being analyzed for p53 and GAPDH levels. (C) Treatment of A2780 cells with 2.5 μM Enone-2 results in the up-regulation of p53-regulated genes (*p<0.05; **p<0.01; ***p<0.001, n=4). (D) Induction of p53 accumulation in AGE60 ovarian carcinoma cells following 6 or 14 hr exposure to 2.5 μM Enone-2. (E) Enone-1 induces the p53 pathway in A2780 cells which were cultured in the presence of 2.5 μM of the drug and analyzed as in (B). (F) Treatment of A2780 cells with 2.5 μM Enone-2 results in the up-regulation of p53-regulated genes (*p<0.05; **p<0.01; ***p<0.001, n=3).
(§4) The effects of Enone-2 on p53 and p53-dependent transcription of cell cycle and cell death-associated genes was confirmed by immunoblotting for p53 and by reverse transcription qPCR (RT-qPCR) for mdm2, p21, bax and bbc3/puma, established p53 target genes.

Assay [7] deals with p53. Kind of assay: p53 immunoblot in AGE60 cells. The class given is cell-based, human. The note with it: 2.5 μM, 6 or 14 hr. As for the experimental part:
as §3, §4

In assay [8] the test system is MB49 mouse bladder carcinoma cells. The assay is described as follows: MTT assay, MB49. The class given is cell-based. The note with it: 48 hrs. As for the experimental part: FIG. 5: Effects of enone compounds on mouse tumor growth.
as §2
First, the impact of Enone-1 and Enone-2 on the survival of MB49 cells was verified by MTT assays performed as described in FIG. 1.

Entries after “also recorded” stand apart in the source; their conditions may differ.

With `C[C@@]1(O)C=CC(=O)[C@H]1c1ccc(F)c2ccccc12` (stereo in doubt) [Enone-2, 5-(4-fluoronaphthalen-1-yl)-4-hydroxy-4-methylcyclopent-2-en-1-one], the IC50 in assay [1] came to 6200 nM; in assay [2], 900 nM; in assay [3] it was 500 nM; in the assay with A549 lung cells it was 1500 nM; in assay [5] (Homo sapiens, A2780, 2780CP, ovarian, cis-platin-resistant, 48 hrs treatment, MTT), 700 nM; in assay [8] it was 600 nM. For the same molecule, the “effect of Chek2 or Rpl11 siRNA knockdown on drug-induced p53 activation” value with p53 [4] was “only Rpl11 knockdown that affected Enone-2 mediated p53 activation”. In addition, the “sensitivity of 2780CP cells compared with cis-platin-sensitive A2780 cells” value in assay [5] (MTT conversion assays) is listed as “nearly as sensitive; also recorded: remain sensitive”. The “p53 accumulation (immunoblot)” value is “robust p53 accumulation; also recorded: robustly induced p53 accumulation” in the assay on p53 [6] and “robust p53 accumulation” with p53 [7].
